The text below walks through data of patent US6723897B2, “Methods for controlling gibberellin levels” (Monsanto Technology, LLC, priority 1998, dated 2004).

“And” between values parts separate entries of the source, which are not always exact repeats. Equal values may be shown once.

One series relates to A3237 soybean. Nature of the series: GA3 soil drench, shoot length of control soybean. It is filed as in vivo, Glycine max. The conditions noted are these: line A3237; +3 × 10^−6 M GA3 soil drench; 7 days after planting. The source says:
Thirty-five soybean plants are produced by transformation with pMON29801 (FIG. 7) containing the antisense CPS conserved core (asCPScc) gene driven by constitutive FMV promoter. The seed (R1) from the initial R0 transgenic lines is collected. R1 seeds are sown in 4-inch pots filled with commercial potting soil (Metromix 350) that is saturated with water or GA3 at a rate of either 3×10^−6 or 10^−5 M. Typically, 20 seeds are sown in 10 pots for each treatment, except where the seed supply is limiting. Pots are incubated in a greenhouse routinely used for soybean growth. Emergence is scored versus days after planting (DAP). Two soybean lines, 724 and 720, show a delayed emergence phenotype. Line 724 emergence is 1 to 2 days later than the control.
GA3 added to plasmid pMON29801 transgenic soybean seeds as a soil drench also restores soybean emergence timing and plant height during early seedling growth. Rates of GA3 between 1×10^−6 and 1×10^−5 M, when added to soil either immediately before planting or immediately after, restores normal shoot length in emerged Line #719 seedlings (Table 5).

In series [1] the test system is pMON29801 soybean line 719. Kind of series: Foliar GA3 spray, stature of FMV/asCPScc soybean. It is filed as in vivo, Glycine max. An excerpt:
A foliar spray of GA3 restores normal stature of Line 719 plants. GA3 restores normal vegetative development (Table 6) when sprayed on the foliage of GA-deficient dwarf plants during vegetative development at rates between 10^−4 and 10^−6 M plus a surfactant (Tween 20, 0.05% v/v).

The test system of series [2] is soybean (A3237) in sand saturated with 3 mg/L ancymidol. Kind of series: GA3 seed coating, reversal of ancymidol inhibition of soybean stature. The conditions noted are these: 3 mg GA3/kg seed (Release blended with talc); plant height at 6 DAP. It is filed as in vivo, Glycine max. As to the method: The timing of emergence and plant stature at for transgenic (plasmid pMON29801, FMV/asCPScc) soybean line 724 is rescued by sowing seeds in soil saturated with 3×10^−6 M GA3. At 7 days after planting (DAP), the GA3 treatment to the seeds rescued plant stature to within 10% of the A3237 control. As an additional control, soybean (A3237) seeds are coated with different concentrations of a commercial formulation of GA3 (Release®) blended with talc and sown in sand saturated with 3 mg/L ancymidol and grown in a greenhouse. Plant height is measured at 6 DAP. […] This rate is equivalent to approximately 62 mg GA3 per acre (assuming 140,000 seeds/acre).

Series [3] can be described thus: Concentration of 14C-GA3 in germinating soybean seedlings after seed treatment. It is filed as in vivo, Glycine max. An excerpt: Application of ^14C-GA3 to Asgrow 3237 soybeans as a seed treatment via the hilum at a rate (5-20 ppm) within the range effective in rescuing the hypocotyl of dwarf, GA-deficient plants causes a substantial oversupply in the level of GA3 compared to the levels of endogenous bioactive gibberellins GA1 and GA4 in germinating soybean seeds (FIG. 39). The data upon which FIG. 39 is based are taken from the experiment described below in the section entitled “Determination of half-lives and distribution of ^14C-labeled GA compounds in planta”. More particularly, the data in FIG. 39 are taken from the experiment in which ^14C-GA3 is applied to the hilum at 20 ppm.
The concentration of GA3 in the seedling axis appeared to be directly proportional to the amount of GA3 applied to the seed.
The details are as follows.

Series [4] relates to wild-type (A3237) soybean. Kind of series: Hilum treatment with GA15, GA19, GA24, GA44, hypocotyl length, wild-type soybean. The note with it: 10 μg/seed, 5 DAP.
Experimental: The purpose of this experiment is to evaluate potential gibberellin rescue agents occurring at an intermediate or middle portion of the gibberellin biosynthesis pathway (between GA53/GA12 and GA20/GA9) as seed treatments. These GA compounds are tested using hilum treatment and comparing activity on GA-deficient soybean plants and normal (wild-type) plants.
Wild-type A3237 soybeans are obtained from Asgrow Seed Company. Transgenic seeds are fifth generation (R5) line 719 seeds.
The GA compounds are dissolved in absolute ethanol at a concentration of approximately 10 μg/ml. Compounds are applied to the hilum of dry soybean seed as 1 μl drops. Seeds are sown in 4-inch plastic pots (2 pots per treatment; 5 seeds/pot) containing commercial potting soil (Metromix 200) placed in a greenhouse set for 12 hr light, and day and night temperatures of 85° F. (29° C.) and 75° F. (24° C.), respectively. After all treatments are emerged (5 DAP), hypocotyl length is measured.
The mark [5] stands for this setting: 'no GA': single spray treatment at 21 DAP with GA, not further sprayed.
Setting [6] is: GA sprayed approximately every week starting at 21 DAP.

As to `C=C1C[C@]23C[C@@]1(O)CC[C@H]2[C@@]12C=C[C@H](O)[C@@](C)(C(=O)O1)[C@H]2[C@@H]3C(=O)O` [GA3, gibberellic acid], in the series with A3237 soybean, the “Plant height (cm)” value is recorded as 14.9 (0.3) cm. Further, in series [1] (setting [5]), the “Plant height (cm), 21 DAP” value is 2.0 cm and 2.5 cm; the “Plant height (cm), 50 DAP” value is 13 cm. In addition, in series [1] (setting [6]), the “Plant height (cm), 21 DAP” value came out at 2.5 cm; the “Plant height (cm), 50 DAP” value was 61 cm and 56 cm. The “reversal of ancymidol inhibition of soybean stature” value in series [2] is reported as “Good reversal of ancymidol inhibition of soybean stature”. In addition, the “GA3 in seedling axis relative to combined endogenous bioactive GAs in untreated tissue” value in series [3] (20 ppm, 1 DAP) was “approximately 100 times higher”. Moreover, the concentration at 1 day after planting in series [3] (Asgrow 3237, soybean (Glycine max), seedling axis, other: seed treatment applied to the hilum, ^14C-GA3 applied to the hilum at 20 ppm, one day after planting, read-out: calculated concentration of GA3 delivered to the seedling axis) is 4.31 µM. Also, in series [4], the “hypocotyl elongation of wild-type (A3237) soybean (FIG. 41)” value is recorded as “overelongation of A3237 hypocotyls”.
